Measurements: patent US20060135472A1, “Use of water-soluble polymers to improve stability of diiodomethyl-para-tolylsulfone in complex matrices” (priority 2004, published 2006)

Columns and labels:
[1] = cited from earlier work
[2] = Stability of DITS in a generic shampoo matrix after storage at 40° C. for 8 weeks, by HPLC; type: physicochemical
Description: All analytical data were obtained by high performance liquid chromatography (“HPLC”) analysis for content for diiodomethyl-p-tolylsulfone (DITS) and monoiodomethyl-p-tolylsulfone (MITS). Analysis was done on an Agilent HP system using a Phenomenex Bondclone 10 micron C18 reverse phase column (300×3.9 mm, 10 microns) at a flow rate of 2 mL/min, isocratic 55% acetonitrile in water for 17 min. Under these conditions DITS elutes at 3.9-4.3 min and MITS elutes at 2.9-3.3 min, depending on the shampoo matrix. […]
To a 250 mL glass jar were added 24.81 g water and 0.2526 g SL 400. The mixture was stirred vigorously for 1.5 h. Then, 1.0302 g milled AMICAL™ diiodomethyl-para-tolylsulfone was added, and the mixture was stirred for an additional 1.5 hours. After that, the premix was heated to 68° C. in a hot water bath, and a pre-blended mixture of Standapol* EA-3 (32.98 g), Standapol* A (11.16 g), and LAA (16.70 g) was added with agitation. 12.9 g of DI water was added next, and stirring was continued in the hot water bath. After 10 min, […] to adjust the pH. After an additional 10 min, the temperature of the mixture was recorded (68° C.) and the heating was stopped. The mixture was stirred on high speed for another hour, until it cooled. At that point, 0.31 g Glydant* and 0.30 g fragrance were added, and the sample was adjusted with water to 100 g formulation. Stirring continued for another hour. […]
This procedure was followed for all the polymers listed in Table 1, at the stated polymer concentration. In all cases, AMICAL™ 48 milled to a D50=2 microns was used (diiodomethyl-p-tolylsulfone content 92.5%). Detailed here is the example involving SOFTCAT™ SL 400 at 0.25% concentration.
To a 250 mL glass jar were added 24.82 g water and 0.2644 g SOFTCAT™ SL 400. The mixture was stirred vigorously for 1.5 h. Separately, in a 250 mL beaker were combined Standapol* EA-3 (33.57 g), Standapol* A (11.08 g), and LAA (16.13 g). The mixture was stirred vigorously using an overhead stirrer, and after 10 min, 1.0120 g milled DITS (AMICAL™ 48) was added, followed by 5.0 g water. The DITS-surfactant blend was stirred for 1.25 hours. After that, the DITS—surfactant blend was added with agitation to the polymer solution which had been heated to 58° C. in a hot water bath. 8.12 g of deionized water was added next, and stirring was continued in the hot water bath. After 10 min, 1 mL of a 10% aqueous citric acid solution was added to adjust the pH. After an additional 15 min, the temperature of the mixture was recorded (58° C.) and the heating was stopped. The mixture was stirred on high speed for another hour, until it cooled. At that point, 0.44 g Glydant* and 0.3 g fragrance were added, and the sample was adjusted with water to 100 g formulation. […]

[3] = test system: fungi; conditions: wide variety of fungi; cited from earlier work

**Q.** Which water solubility [1] does the source give for Cc1ccc(S(=O)(=O)C(I)I)cc1 [DITS, diiodomethyl-para-tolylsulfone] here?
**A.** less than 10 ppm

**Q.** What about the “DITS content after storage (HPLC)” value ([2]; Example 4, no polymer control, 8 week at 40° C.) of the same compound?
**A.** 0.44%

**Q.** And the “DITS content at time zero (HPLC)” value ([2]; Example 4, no polymer control, time zero)?
**A.** 1.02%

**Q.** What about the decomposition ([2]; control samples formulated without polymer, shampoo matrix, 8 weeks at 40° C.) of the same compound?
**A.** ~60%

**Q.** And the “% DITS left when added to surfactant blend” value ([2]; generic shampoo matrix, 40° C. for 8 weeks, no polymer (control, Example 4))?
**A.** 43.2%

**Q.** What about the minimum inhibitory concentration [3] of the same compound?
**A.** less than 10 ppm
